# Results taken from US8349577B2, “Method for evaluating blood-neural barrier permeability” (Research Foundation For Mental Hygiene, Inc., priority 2010, dated 2013).
# Entries after “also recorded” stand apart in the source; their conditions may differ.
# Experiments:
# [1] = system: PLA2 activity in lumbar CSF; assay: Continuous fluorescence PLA2 activity assay with lumbar CSF (Bis-BODIPY FL C11-PC-labeled DOPC liposomes); format: biochemical, human; details: for Inhibition of PLA2 activity from lumbar CSF: 5 μL lumbar CSF incubated with inhibitor, FIGS. 3A-3C
# Method: (§1) PLA2 activity assays were carried out in triplicates using a continuous fluorescent measurement. In a 96-well microplate, 5 μL lumbar CSF (or 10 μM recombinant sPLA2) was diluted in 90 μL PLA2 assay buffer (10 mM Tris-HCl, pH 7.4; 100 mM KCl; 5 mM CaCl2; 1 mM DTT). Then, 5 μL Bis-BODIPY® FL C11-PC-labeled 100% DOPC liposomes were added to each well and the microplate was immediately placed in a temperature controlled (30° C.) cytofluor multi-well plate reader series 4000 (PerSeptive Biosystems®, Foster City, Calif.). The fluorescence intensity was recorded over 90 min (91 cycles of 60 sec each) at 485 nm excitation and 530 nm emission. Finally, PLA2 activity was evaluated using linear curve fitting with Graph Prism 3.0 (GraphPad Software™, San Diego, Calif.).
# (§2) Although there are currently twenty-two different PLA2 enzymes classified in five families (sPLA2, cPLA2, iPLA2, PAF-AH and lysosomal PLA2), there is currently no known tool for the specific characterization of each of these isozymes. Thus, to characterize the activity of each new PLA2 the current approach is to determine to which family the PLA2 enzyme belongs. For this purpose, a battery of inhibitors more or less specific against each PLA2 family is generally used to discriminate one family from another.
# (§3) Stock solutions and serial dilutions of PLA2 inhibitors (AACOCF3, BEL and Thioetheramide-PC) were prepared in PLA2 assay buffer supplemented by 4.25 mM Triton X-100. Each assay was carried out in the absence or presence of 5 μL of the appropriate inhibitor.
# [2] = system: recombinant sPLA2; assay: Continuous fluorescence PLA2 activity assay with recombinant sPLA2 (Bis-BODIPY FL C11-PC-labeled DOPC liposomes); format: biochemical; details: for Inhibition of PLA2 activity from recombinant sPLA2: recombinant sPLA2 incubated with inhibitor, FIGS. 3A-3C
# Method: as §1, §2, §3
# [3] = various concentrations of calcium, FIG. 3D
Molecule,Inhibition of PLA2 activity from lumbar CSF [1],Inhibition of PLA2 activity from recombinant sPLA2 [2],"Effect of increasing calcium concentration on PLA2 activity in lumbar CSF [1, 3]","Effect of increasing calcium concentration on recombinant sPLA2 activity [2, 3]"
CCCCC/C=C\C/C=C\C/C=C\C/C=C\CCCC(=O)C(F)(F)F [AACOCF3],not and failed to do so,failed to do so,–,–
O=C1O/C(=C/Br)CCC1c1cccc2ccccc12 (centres unmarked) [BEL],not and failed to do so,failed to do so,–,–
CCCCCCCCCCCCCCCCSC[C@H](COP(=O)(O)OCC[N+](C)(C)C)NC(=O)CCCCCCCCCCCCCCC [thioetheramide-PC],strongly inhibited; also recorded: dose-dependently inhibited,dose-dependently inhibited,–,–
calcium,–,–,increase of PLA2 activity,increase of PLA2 activity
